Experimental data from patent US11970478B1, “9-(2-hydroxyquinolin-3-yl)-10-(2-hydroxyethyl)-3,3,6,6-tetramethyl-3,4,6,7,9,10-hexahydroacridine1,8(2H,5H)-dione as an antimicrobial compound” (KING FAISAL UNIVERSITY, priority 2023, dated 2024).

Assays:
Conditions in all cases: after 10, 20, 40 and 60 minutes at all dilutions 1:100 to 1:800
[1] = system: Candida albicans; test: Antimicrobial activity by agar dilution, Candida albicans; format: cell-based
Protocol: (§1) The antimicrobial properties of the synthesized compound 9-(2-hydroxyquinolin-3-yl)-10-(2-hydroxyethyl)-3,3,6,6-tetramethyl-3,4,6,7,9,10-hexahydroacridine1,8(2H,5H)-dione were studied by the method of agar dilution. Test solutions of each compound were prepared in a concentration of 1% using dimethylformamide as a solvent. Then they were diluted in a physiological solution to obtain the final experimental dilutions 1:100, 1:200, 1:400, and 1:800. The effect of these substances were compared with furacillin in a controllable study. The testing microbes used were gram positive bacteria St. Aereus, gram negative bacteria E. Coli and Ps. Aeruginosa, and Candida albicans fungi. The experiments used for this survey were meat-pentonlu agar (EPA) for cultivation of bacteria and Saburo environment for fungi. Each experiment used 1 ml of test solution on each plate 500 min. Add 2 drops of emulsified with microbes feel. All experimental samples were taken from the agar after 10, 20, 40, 60 minutes in the environment on the basis of Patrk planted. Bacteria were cultivated at a temperature of 37° C. for 1 day and the mushroom was kept in a thermostat for 2 hours at a temperature of 28° C. Then the results were checked.

[2] = system: St. Aereus; test: Antimicrobial activity by agar dilution, St. Aereus; format: cell-based, Staphylococcus aureus
Protocol: as §1

[3] = system: Ps. Aeruginosa; test: Antimicrobial activity by agar dilution, Ps. Aeruginosa; format: cell-based, Pseudomonas aeruginosa
Protocol: as §1

[4] = system: E. Coli; test: Antimicrobial activity by agar dilution, E. Coli; format: cell-based, Escherichia coli
Protocol: as §1

Measured: inhibition activity (in words)

CC1(C)CC(=O)C2=C(C1)N(CCO)C1=C(C(=O)CC(C)(C)C1)C2c1cc2ccccc2nc1O [9-(2-hydroxyquinolin-3-yl)-10-(2-hydroxyethyl)-3,3,6,6-tetramethyl-3,4,6,7,9,10-hexahydroacridine1,8(2H,5H)-dione]
highest inhibition activity: all assays above
